Measurements taken from patent US20250302775A1, “METHODS FOR THE TREATMENT OF DEPRESSION” (Autobahn Therapeutics, Inc., priority 2022, published 2025).

Biological target: T1, recombinant human FAAH (rhFAAH) (Homo sapiens, UniProt O00519)
T1 construct: purchased Cayman Chemical (Ann Arbor, MI, USA)
T1 sequence (O00519 1-579): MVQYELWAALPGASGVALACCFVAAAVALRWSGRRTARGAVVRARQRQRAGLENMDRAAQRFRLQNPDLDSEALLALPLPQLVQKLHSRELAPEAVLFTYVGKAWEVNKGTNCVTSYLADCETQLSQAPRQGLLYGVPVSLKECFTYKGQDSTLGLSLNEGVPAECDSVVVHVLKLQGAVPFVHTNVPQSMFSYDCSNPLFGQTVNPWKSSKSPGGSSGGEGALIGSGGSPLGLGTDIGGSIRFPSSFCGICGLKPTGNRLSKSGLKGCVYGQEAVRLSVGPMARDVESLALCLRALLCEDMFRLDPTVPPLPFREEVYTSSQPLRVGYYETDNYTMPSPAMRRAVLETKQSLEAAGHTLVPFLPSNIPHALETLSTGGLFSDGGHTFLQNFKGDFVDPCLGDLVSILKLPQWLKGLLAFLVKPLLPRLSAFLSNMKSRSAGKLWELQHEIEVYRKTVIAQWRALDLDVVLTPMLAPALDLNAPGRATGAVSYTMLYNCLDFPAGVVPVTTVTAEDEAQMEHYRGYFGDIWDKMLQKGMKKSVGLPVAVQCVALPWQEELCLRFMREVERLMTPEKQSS
Assay: FAAH substrate evaluation: formation of acid metabolite
Assay type: biochemical
Conditions: 0.5 ng/μL rhFAAH, 1 μM test compound, room temperature, pH 8.0, 0-60 minutes
Experimental: Purified recombinant human FAAH (rhFAAH) was purchased from Cayman Chemical (Ann Arbor, MI, USA). The total volume for each incubation was 400 μL containing a final 0.5 ng/μL rhFAAH, 1 μM test compound, 1.25% ethanol or 1 μM PF-3845 (FAAH inhibitor), and 0.1% bovine serum albumin in Tris-EDTA buffer at pH 8.0). The positive control was LL-341001. The incubation was conducted at the room temperature. At 0, 5, 15, 30 and 60 minutes, an aliquot of 30 μL reaction mixtures was removed and mixed with 300 μL acetonitrile containing 5 ng/mL terfenadine and 10 ng/mL tolbutamide as internal standards to quench the reaction. The resulting mixture was centrifuged at 4000 rpm, 4° C. for 15 minutes, and 100 μL supernatant was ready for LC-MS/MS analysis to measure the formation of acid metabolite.
Acquity Ultra Performance LC system from Waters was used for sample analysis. The chromatography was performed on a reverse phase Kinetex 2.6 μm C18 column, 2.1×30 mm, 100 Å. The mobile phase A comprised of 0.1% formic acid in water and mobile phase B comprised of 0.1% formic acid in acetonitrile with a 2-min run time at the flow rate of 0.8 mL/min for the acid metabolite from positive control or a 1.5 min run time at the flow rate of 0.9 mL/min for the acid metabolite of test compounds. The mass spectrometer (API-5500 and API Q Trap 4000 Applied Biosystems/MDS SCIEX Instruments, Framingham, MA, USA) was operated under ESI positive or negative ion MRM mode.
The formation of acid metabolite was monitored and quantified using one calibration point of 1 μM. The observed rate constant (ke) for the acid metabolite formation was calculated by plotting the metabolite concentration versus time of incubation with the slope being ke and is shown in Table 1.

Row | SMILES | ke (observed rate constant for the acid metabolite formation)
1 | CCCNC(=O)COc1cc(Cl)c(Cc2ccc(O)c(C(C)C)c2)c(Cl)c1 [Compound 3] | A (A = ke is more than or equal to 0.1)
2 | C=CCNC(=O)COc1cc(Cl)c(Cc2ccc(O)c(C(C)C)c2)c(Cl)c1 [Compound 4] | A (A = ke is more than or equal to 0.1)
3 | CC(C)c1cc(Cc2c(Cl)cc(OCC(=O)NC[C@@H](C)O)cc2Cl)ccc1O [Compound 7] | B (B = ke is less than 0.1 and more than 0)
4 | CC(C)c1cc(Cc2c(Cl)cc(OCC(=O)NC[C@H](C)O)cc2Cl)ccc1O [Compound 8] | B (B = ke is less than 0.1 and more than 0)
5 | CC(C)c1cc(Cc2c(Cl)cc(OCC(=O)NC(CO)CO)cc2Cl)ccc1O [Compound 11] | B (B = ke is less than 0.1 and more than 0)
6 | CC(C)c1cc(Cc2c(Cl)cc(OCC(=O)NCCN)cc2Cl)ccc1O [Compound 12] | B (B = ke is less than 0.1 and more than 0)
7 | CC(C)c1cc(Cc2c(Cl)cc(OCC(=O)NCCS(=O)O)cc2Cl)ccc1O [Compound 13] | B (B = ke is less than 0.1 and more than 0)
8 | CC(C)c1cc(Cc2c(Cl)cc(OCC(=O)NCC(F)F)cc2Cl)ccc1O [Compound 15] | A (A = ke is more than or equal to 0.1)
9 | CC(C)c1cc(Cc2c(Cl)cc(OCC(=O)NC3CC3)cc2Cl)ccc1O [Compound 17] | A (A = ke is more than or equal to 0.1)
10 | CC(C)c1cc(Cc2c(Cl)cc(OCC(=O)N(C)C)cc2Cl)ccc1O [Compound 19] | B (B = ke is less than 0.1 and more than 0)
11 | CC(C)c1cc(Cc2c(Cl)cc(OCC(=O)NCCc3ccccc3)cc2Cl)ccc1O [Compound 23] | B (B = ke is less than 0.1 and more than 0)
12 | CC(C)c1cc(Cc2c(Cl)cc(OCC(=O)NCCc3ccc(O)c(O)c3)cc2Cl)ccc1O [Compound 24] | B (B = ke is less than 0.1 and more than 0)
13 | CC(C)c1cc(Cc2c(Cl)cc(OCC(=O)Nc3cccc(F)c3)cc2Cl)ccc1O [Compound 25] | A (A = ke is more than or equal to 0.1)
14 | CC(C)c1cc(Cc2c(Cl)cc(OCC(=O)NCCS(C)(=O)=O)cc2Cl)ccc1O [Compound 30] | A (A = ke is more than or equal to 0.1)
15 | CC(C)c1c(O)ccc(Cc2c(Cl)cc(OCC(=O)N(C)C)cc2Cl)c1F [Compound 32] | A (A = ke is more than or equal to 0.1)
16 | CNC(=O)COc1cc(Cl)c(Cc2ccc(O)c(C(C)C)c2)c(Cl)c1F [Compound 37] | B (B = ke is less than 0.1 and more than 0)
17 | CC(C)c1cc(Cc2c(Cl)cc(OCC(=O)N(C)C)c(F)c2Cl)ccc1O [Compound 38] | B (B = ke is less than 0.1 and more than 0)
18 | CNC(=O)COc1cc(Cl)c(Cc2ccc(O)c(C(C)C)c2F)c(Cl)c1F [Compound 39] | B (B = ke is less than 0.1 and more than 0)
19 | CC(C)c1c(O)ccc(Cc2c(Cl)cc(OCC(=O)N(C)C)c(F)c2Cl)c1F [Compound 40] | B (B = ke is less than 0.1 and more than 0)
20 | CON(C)C(=O)COc1cc(Cl)c(Cc2ccc(O)c(C(C)C)c2F)c(Cl)c1 [Compound 44] | A (A = ke is more than or equal to 0.1)
21 | CC(C)c1c(O)ccc(Cc2c(Cl)cc(OCC(=O)NN(C)C)cc2Cl)c1F [Compound 45] | A (A = ke is more than or equal to 0.1)
22 | CC(C)c1cc(Cc2c(Cl)cc(OCC(=O)NC3CCCCC3)cc2Cl)ccc1O [Compound 105] | C (C = ke is 0)

Second part, the compound after the results:

Row | ke (observed rate constant for the acid metabolite formation) | SMILES
23 | A (A = ke is more than or equal to 0.1) | CCNC(=O)COc1cc(Cl)c(Cc2ccc(O)c(C(C)C)c2)c(Cl)c1 [Compound 2]
24 | A (A = ke is more than or equal to 0.1) | C#CCNC(=O)COc1cc(Cl)c(Cc2ccc(O)c(C(C)C)c2)c(Cl)c1 [Compound 5]
25 | A (A = ke is more than or equal to 0.1) | CC(C)c1cc(Cc2c(Cl)cc(OCC(=O)NCCO)cc2Cl)ccc1O [Compound 6]
26 | A (A = ke is more than or equal to 0.1) | CC(C)c1cc(Cc2c(Cl)cc(OCC(=O)N[C@H](C)CO)cc2Cl)ccc1O [Compound 9]
27 | A (A = ke is more than or equal to 0.1) | CC(C)c1cc(Cc2c(Cl)cc(OCC(=O)N[C@@H](C)CO)cc2Cl)ccc1O [Compound 10]
28 | A (A = ke is more than or equal to 0.1) | CC(C)c1cc(Cc2c(Cl)cc(OCC(=O)NCCF)cc2Cl)ccc1O [Compound 14]
29 | A (A = ke is more than or equal to 0.1) | CC(C)c1cc(Cc2c(Cl)cc(OCC(=O)NCC(F)(F)F)cc2Cl)ccc1O [Compound 16]
30 | A (A = ke is more than or equal to 0.1) | CC(C)c1cc(Cc2c(Cl)cc(OCC(=O)NC3COC3)cc2Cl)ccc1O [Compound 18]
31 | A (A = ke is more than or equal to 0.1) | CC(C)c1cc(Cc2c(Cl)cc(OCC(=O)Nc3ccccc3O)cc2Cl)ccc1O [Compound 20]
32 | A (A = ke is more than or equal to 0.1) | CC(C)c1cc(Cc2c(Cl)cc(OCC(=O)Nc3cccc(O)c3)cc2Cl)ccc1O [Compound 21]
33 | A (A = ke is more than or equal to 0.1) | CC(C)c1cc(Cc2c(Cl)cc(OCC(=O)NCc3ccccc3)cc2Cl)ccc1O [Compound 22]
34 | A (A = ke is more than or equal to 0.1) | CC(C)c1cc(Cc2c(Cl)cc(OCC(=O)NO)cc2Cl)ccc1O [Compound 26]
35 | A (A = ke is more than or equal to 0.1) | CC(C)c1cc(Cc2c(Cl)cc(OCC(=O)NN)cc2Cl)ccc1O [Compound 27]
36 | A (A = ke is more than or equal to 0.1) | CONC(=O)COc1cc(Cl)c(Cc2ccc(O)c(C(C)C)c2)c(Cl)c1 [Compound 28]
37 | A (A = ke is more than or equal to 0.1) | CC(C)c1cc(Cc2c(Cl)cc(OCC(=O)NCC#N)cc2Cl)ccc1O [Compound 29]
38 | A (A = ke is more than or equal to 0.1) | CCNC(=O)COc1cc(Cl)c(Cc2ccc(O)c(C(C)C)c2F)c(Cl)c1 [Compound 33]
39 | C (C = ke is 0) | CCN(C)C(=O)COc1cc(Cl)c(Cc2ccc(O)c(C(C)C)c2F)c(Cl)c1 [Compound 34]
40 | A (A = ke is more than or equal to 0.1) | CC(C)c1c(O)ccc(Cc2c(Cl)cc(OCC(N)=O)cc2Cl)c1F [Compound 35]
41 | A (A = ke is more than or equal to 0.1) | CC(C)c1c(O)ccc(Cc2c(Cl)cc(OCC(=O)NCCF)cc2Cl)c1F [Compound 36]
42 | A (A = ke is more than or equal to 0.1) | CNC(=O)COc1cc(F)c(Cc2ccc(O)c(C(C)C)c2)c(Cl)c1F [Compound 42]
43 | A (A = ke is more than or equal to 0.1) | COc1ccc(NC(=O)COc2cc(Cl)c(Cc3ccc(O)c(C(C)C)c3)c(Cl)c2)cn1 [Compound 101]
44 | A (A = ke is more than or equal to 0.1) | CC(C)c1cc(Cc2c(Cl)cc(OCC(=O)Nc3cnccn3)cc2Cl)ccc1O [Compound 102]
45 | A (A = ke is more than or equal to 0.1) | Cc1noc(NC(=O)COc2cc(Cl)c(Cc3ccc(O)c(C(C)C)c3)c(Cl)c2)c1C [Compound 103]
46 | A (A = ke is more than or equal to 0.1) | CC(C)c1cc(Cc2c(Cl)cc(OCC(=O)Nc3cccnn3)cc2Cl)ccc1O [Compound 104]
